Measurements: PubChem BioAssay AID1963861 (Molecular Pharmacology Branch, DTP, NCI, 2024)
pIC50: −log10 of the molar value.

System: 885724-159-R-J1-PDC KRAS PDC multicell spheroid viability
Experiment: Anticancer human tumor 885724-159-R-J1-PDC patient-derived pancreatic adenocarcinoma cell line growth inhibition [KRAS2]
Settings: for pIC50: curve of first compound; for viability, T/C: stronger effect = lower value; active means viability on the fitted dose curve at most 10% of control; inactive means the rest
Summary of the method: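 KRAS-mutant tumor cells were grown as spheroids with HUVEC endothelial cells and human MSCs as stroma. Targeted agents were tested alone and with KRAS pathway inhibitors. Doses started at or near clinical Cmax, or 10 microM, descending half-log.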

[1] = second compound 0.1 µM, first compound 0.000316 µM
[2] = second compound 0.1 µM, first compound 0.001 µM
[3] = second compound 0.1 µM, first compound 0.00316 µM
[4] = second compound 0.1 µM, first compound 0.01 µM
[5] = second compound 0.1 µM, first compound 0.0316 µM
[6] = second compound 0.316 µM, first compound 0.000316 µM
[7] = second compound 0.316 µM, first compound 0.001 µM
[8] = second compound 0.316 µM, first compound 0.00316 µM
[9] = second compound 0.316 µM, first compound 0.01 µM
[10] = second compound 0.316 µM, first compound 0.0316 µM
[11] = second compound 1 µM, first compound 0.000316 µM
[12] = second compound 1 µM, first compound 0.001 µM
[13] = second compound 1 µM, first compound 0.00316 µM
[14] = second compound 1 µM, first compound 0.01 µM
[15] = second compound 1 µM, first compound 0.0316 µM
[16] = second compound 3.16 µM, first compound 0.000316 µM
[17] = second compound 3.16 µM, first compound 0.001 µM
[18] = second compound 3.16 µM, first compound 0.00316 µM
[19] = second compound 3.16 µM, first compound 0.01 µM
[20] = second compound 3.16 µM, first compound 0.0316 µM
[21] = second compound 10 µM, first compound 0.000316 µM
[22] = second compound 10 µM, first compound 0.001 µM
[23] = second compound 10 µM, first compound 0.00316 µM
[24] = second compound 10 µM, first compound 0.01 µM
[25] = second compound 10 µM, first compound 0.0316 µM
[26] = second compound 0.1 µM, first compound 0.1 µM
[27] = second compound 0.316 µM, first compound 0.1 µM
[28] = second compound 1 µM, first compound 0.1 µM
[29] = second compound 3.16 µM, first compound 0.1 µM
[30] = second compound 10 µM, first compound 0.1 µM
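Further: spheroids exposed to agents for 7 days before readout.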

CC(=O)Nc1cccc(-n2c(=O)n(C3CC3)c(=O)c3c(Nc4ccc(I)cc4F)n(C)c(=O)c(C)c32)c1 + COc1cc2nc(C)nc(NC(C)c3cc(N)cc(C(F)(F)F)c3)c2cc1OC1CCOC1
9.04: pIC50 (second compound 0.316 µM)
inactive: viability, T/C (second compound 0.1 µM, first compound 0.0001 µM) 91% | viability, T/C [1] 73% | viability, T/C [2] 48.1% | viability, T/C [3] 32.7% | viability, T/C [4] 26.2% | viability, T/C [5] 17% | viability, T/C (second compound 0.316 µM, first compound 0.0001 µM) 87.2% | viability, T/C [6] 68.9% | viability, T/C [7] 46.4% | viability, T/C [8] 34.3% | viability, T/C [9] 24.9% | viability, T/C [10] 17.3% | viability, T/C (second compound 1 µM, first compound 0.0001 µM) 89.8% | viability, T/C [11] 68.4% | viability, T/C [12] 46.1% | viability, T/C [13] 31.6% | viability, T/C [14] 24.6% | viability, T/C [15] 17.1% | viability, T/C (second compound 3.16 µM, first compound 0.0001 µM) 74.9% | viability, T/C [16] 62.8% | viability, T/C [17] 44.4% | viability, T/C [18] 27.6% | viability, T/C [19] 19.1% | viability, T/C [20] 10.7% | viability, T/C (second compound 10 µM, first compound 0.0001 µM) 34.8% | viability, T/C [21] 18.5%
9.01: pIC50 (second compound 0.1 µM)
9.15: pIC50 (second compound 3.16 µM)
active: viability, T/C [22] 3.24% | viability, T/C [23] 0.51% | viability, T/C [24] 0.67% | viability, T/C [25] 0.32%
9.07: pIC50 (second compound 1 µM)
> 10.00: pIC50 (second compound 10 µM)

CC(C)n1nc(-c2ccc3oc(N)nc3c2)c2c(N)ncnc21 + COc1cc2nc(C)nc(NC(C)c3cc(N)cc(C(F)(F)F)c3)c2cc1OC1CCOC1
8.12: pIC50 (second compound 3.16 µM)
> 9.50: pIC50 (second compound 10 µM)
inactive: viability, T/C [1] 91.2% | viability, T/C [2] 76.2% | viability, T/C [3] 62.7% | viability, T/C [4] 53.2% | viability, T/C [5] 47% | viability, T/C [26] 40.3% | viability, T/C [6] 90.3% | viability, T/C [7] 75.8% | viability, T/C [8] 66.4% | viability, T/C [9] 57.2% | viability, T/C [10] 45% | viability, T/C [27] 39.2% | viability, T/C [11] 93% | viability, T/C [12] 78.8% | viability, T/C [13] 59.7% | viability, T/C [14] 56% | viability, T/C [15] 46.9% | viability, T/C [28] 42% | viability, T/C [16] 76.4% | viability, T/C [17] 69.8% | viability, T/C [18] 54.8% | viability, T/C [19] 49.1% | viability, T/C [20] 47% | viability, T/C [29] 42.6% | viability, T/C [21] 36.4% | viability, T/C [22] 24.9% | viability, T/C [23] 47.5% | viability, T/C [24] 39.8% | viability, T/C [25] 31.4% | viability, T/C [30] 20.9%
7.69: pIC50 (second compound 0.316 µM)
7.74: pIC50 (second compound 1 µM)
7.77: pIC50 (second compound 0.1 µM)

COC(=O)c1ccc2c(C(=Nc3ccc(N(C)C(=O)CN4CCN(C)CC4)cc3)c3ccccc3)c(O)[nH]c2c1 + COc1cc2nc(C)nc(NC(C)c3cc(N)cc(C(F)(F)F)c3)c2cc1OC1CCOC1
> 7.50: pIC50 (second compound 10 µM)
5.75: pIC50 (second compound 3.16 µM)
inactive: viability, T/C [5] 121% | viability, T/C [26] 127% | viability, T/C (second compound 0.1 µM, first compound 0.316 µM) 120% | viability, T/C (second compound 0.1 µM, first compound 1 µM) 118% | viability, T/C (second compound 0.1 µM, first compound 3.16 µM) 23.7% | viability, T/C [10] 107% | viability, T/C [27] 114% | viability, T/C (second compound 0.316 µM, first compound 0.316 µM) 102% | viability, T/C (second compound 0.316 µM, first compound 1 µM) 103% | viability, T/C (second compound 0.316 µM, first compound 3.16 µM) 34.5% | viability, T/C [15] 103% | viability, T/C [28] 106% | viability, T/C (second compound 1 µM, first compound 0.316 µM) 107% | viability, T/C (second compound 1 µM, first compound 1 µM) 98.1% | viability, T/C (second compound 1 µM, first compound 3.16 µM) 17% | viability, T/C [20] 93.8% | viability, T/C [29] 98.6% | viability, T/C (second compound 3.16 µM, first compound 0.316 µM) 104% | viability, T/C (second compound 3.16 µM, first compound 1 µM) 95.8% | viability, T/C [25] 46.7% | viability, T/C [30] 48.8% | viability, T/C (second compound 10 µM, first compound 0.316 µM) 19.4%
active: viability, T/C (second compound 0.1 µM, first compound 10 µM) 1.54% | viability, T/C (second compound 0.316 µM, first compound 10 µM) 0.96% | viability, T/C (second compound 1 µM, first compound 10 µM) 1.09% | viability, T/C (second compound 3.16 µM, first compound 3.16 µM) 3.95% | viability, T/C (second compound 3.16 µM, first compound 10 µM) 0.79% | viability, T/C (second compound 10 µM, first compound 1 µM) 8.2% | viability, T/C (second compound 10 µM, first compound 3.16 µM) 0.75% | viability, T/C (second compound 10 µM, first compound 10 µM) 0.36%
5.70: pIC50 (second compound 1 µM)
5.64: pIC50 (second compound 0.1 µM)
5.61: pIC50 (second compound 0.316 µM)
